Experiments:
[1] = test system: HEK-Blue IFNγ reporter cells (IFNγ-stimulated STAT1 SEAP reporter); assay: HEK-Blue IFNγ SEAP reporter assay for determining selectivity; type: cell-based; conditions: Homo sapiens, HEK-Blue, 50 ng/mL human recombinant IFNγ, read-out: IFN-γ (SEAP selectivity, IC50)
In short: (§1)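 Cells were plated for 20-22 h, then pretreated with serially diluted compound for 60 min. They were stimulated for 24 h with 4 ng/mL human recombinant IL-2 or 50 ng/mL human recombinant IFNγ, and SEAP induction was read with QUANTI-Blue.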

JAK3 kinase domain (JH1) = target: T1, JAK3 kinase domain (JH1) (Homo sapiens, UniProt P52333); assay: HTRF-based selectivity assay, JAK3 catalytic domain; type: biochemical; conditions: recombinant catalytic domain, ATP 2.12 μM
T1 construct: recombinant purified His or GST-tagged catalytic domain for each enzyme; purchased Carna biosciences 08-046
Protocol: (§2) Example B-2: HTRF-Based Selectivity Assay
(§3) The ability of compounds to inhibit the activity of JAK1, JAK2, JAK3 and TYK2 is measured using a recombinant purified His or GST-tagged catalytic domain for each enzyme (JAK1, JAK2 and TYK2 are generated in-house; JAK3 was purchased from Carna biosciences, Cat #08-046) in an HTRF format biochemical assay. The reactions employs a commercial peptide substrate from Cisbio (Cat #62TK0PEC). The basic assay protocol is as follows: first, 2.5 μL of diluted compounds (4×) in DMSO are dispensed into a 384-well Optiplate. Next, 2.5 μL of enzyme (final concentrations for enzymes are: TYK2—700 ng/mL, JAK1—80.6 ng/mL, JAK2—2.1 ng/mL and JAK3—171.8 ng/mL) is added and incubated at RT for 5-20 min. Finally, 5 μl of mixture of 2× ATP [Final concentration 20 μM for TYK2, 21.43 μM for JAK1, 14.7 μM for JAK2 and 2.12 μM for JAK3]+2× Substrate [Final concentration 217 nM for TYK2, 454.7 nM for JAK1, 200 nM for JAK2 and 257.4 nM for JAK3] is added to 384 well Optiplate. Composition of Kinase assay buffer used in the assay is as follows: HEPES 50 mM, EGTA 1 mM, MgCl2 10 mM, DTT 2 mM, Tween-20 0.01% and water. Then the plates are shaken and then incubated at 26.5° C. for 60 min.

[2] = test system: HEK-Blue IFNα/β cells (IFNα-stimulated STAT1 SEAP reporter; TYK2 JH2); assay: HEK-Blue IFNα/β SEAP reporter assay for profiling TYK2 pseudokinase (JH2) inhibition; type: cell-based; conditions: Homo sapiens, HEK-Blue, 1 ng/mL human recombinant IFNα, read-out: IFNα (TYK2 inhibitory activity, IC50)
In short: (§4)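 Reporter cells were seeded in DMEM/10% heat-inactivated FBS and cultured 20-22 h at 37 °C. Compounds, serially diluted, were applied for 60 min before human recombinant IL-23 (10 ng/mL, 22-24 h) or IFNα (1 ng/mL, 16-18 h) was added. Secreted alkaline phosphatase was then quantified with QUANTI-Blue.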

[3] = test system: HEK-Blue IL-2 reporter cells (IL-2-stimulated STAT5 SEAP reporter); assay: HEK-Blue IL-2 SEAP reporter assay for determining selectivity; type: cell-based; conditions: 4 ng/mL human recombinant IL-2
In short: as §1

TYK2 kinase domain (JH1) = target: T2, TYK2 kinase domain (JH1) (Homo sapiens, UniProt P29597); assay: HTRF-based selectivity assay, TYK2 catalytic domain; type: biochemical; conditions: recombinant catalytic domain, ATP 20 μM
T2 construct: recombinant purified His or GST-tagged catalytic domain for each enzyme; made in house
T2 sequence (P29597 897-1176 limits assumed): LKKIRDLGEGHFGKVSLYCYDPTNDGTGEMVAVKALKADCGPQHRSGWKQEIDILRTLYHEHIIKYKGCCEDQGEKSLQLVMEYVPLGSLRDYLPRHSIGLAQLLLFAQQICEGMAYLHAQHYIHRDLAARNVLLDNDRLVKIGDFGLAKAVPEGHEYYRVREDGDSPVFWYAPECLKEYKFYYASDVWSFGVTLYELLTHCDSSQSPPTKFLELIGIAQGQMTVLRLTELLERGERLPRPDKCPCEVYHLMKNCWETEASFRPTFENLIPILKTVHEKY
Protocol: as §2, §3

JAK2 kinase domain (JH1) = target: T3, JAK2 kinase domain (JH1) (Homo sapiens, UniProt O60674); assay: HTRF-based selectivity assay, JAK2 catalytic domain; type: biochemical; conditions: recombinant catalytic domain, ATP 14.7 μM
T3 construct: recombinant purified His or GST-tagged catalytic domain for each enzyme; made in house
Protocol: as §2, §3

JAK1 kinase domain (JH1) = target: T4, JAK1 kinase domain (JH1) (Homo sapiens, UniProt P23458); assay: HTRF-based selectivity assay, JAK1 catalytic domain; type: biochemical; conditions: recombinant catalytic domain, ATP 21.43 μM
T4 construct: recombinant purified His or GST-tagged catalytic domain for each enzyme; made in house
Protocol: as §2, §3

[4] = test system: HEK-Blue IL-23 cells (IL-23-stimulated STAT3 SEAP reporter; TYK2 JH2); assay: HEK-Blue IL-23 SEAP reporter assay for profiling TYK2 pseudokinase (JH2) inhibition; type: cell-based; conditions: 10 ng/mL human recombinant IL-23, SEAP reporter, read-out: IL23 (TYK2 inhibitory activity, IC50)
In short: as §4

T4 sequence (P23458 875-1153 limits assumed): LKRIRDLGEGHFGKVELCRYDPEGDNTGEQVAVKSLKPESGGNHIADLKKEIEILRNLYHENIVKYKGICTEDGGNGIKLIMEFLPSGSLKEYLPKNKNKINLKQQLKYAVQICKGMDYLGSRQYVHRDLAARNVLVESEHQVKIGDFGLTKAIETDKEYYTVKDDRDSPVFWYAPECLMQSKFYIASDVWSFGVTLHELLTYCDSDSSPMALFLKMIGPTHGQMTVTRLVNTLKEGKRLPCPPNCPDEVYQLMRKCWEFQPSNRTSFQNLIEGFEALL
T1 sequence (P52333 822-1111 limits assumed): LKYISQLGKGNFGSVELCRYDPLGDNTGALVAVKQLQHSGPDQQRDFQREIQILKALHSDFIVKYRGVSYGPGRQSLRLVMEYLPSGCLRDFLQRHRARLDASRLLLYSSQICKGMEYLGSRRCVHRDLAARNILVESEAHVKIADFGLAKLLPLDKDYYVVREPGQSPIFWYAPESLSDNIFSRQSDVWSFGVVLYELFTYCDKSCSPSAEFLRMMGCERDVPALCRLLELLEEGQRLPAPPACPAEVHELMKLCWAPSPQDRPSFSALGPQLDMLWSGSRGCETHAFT
T3 sequence (O60674 849-1124 limits assumed): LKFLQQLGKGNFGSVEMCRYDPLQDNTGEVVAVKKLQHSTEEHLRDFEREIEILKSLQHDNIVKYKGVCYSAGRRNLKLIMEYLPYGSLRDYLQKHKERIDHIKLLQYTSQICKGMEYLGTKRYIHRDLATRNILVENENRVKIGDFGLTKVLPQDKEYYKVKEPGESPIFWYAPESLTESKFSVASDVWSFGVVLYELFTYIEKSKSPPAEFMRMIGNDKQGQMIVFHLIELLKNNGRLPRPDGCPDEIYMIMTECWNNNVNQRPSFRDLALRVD

Row | SMILES | IC50 (JAK3 kinase domain (JH1)) [µM] | IC50 (TYK2 kinase domain (JH1)) [µM] | IC50 (JAK2 kinase domain (JH1)) [µM] | IC50 (JAK1 kinase domain (JH1)) [µM] | IC50 [1] [µM] | IC50 [2] [µM] | IC50 [3] [µM] | IC50 [4] [µM]
1 | [2H]C([2H])([2H])NC(=O)c1cnc(NC(=O)C2CC2)cc1Nc1cccc2c1N(C)Cc1ncnn1-2 [Compound 6, 6-(cyclopropanecarboxamido)-N-(methyl-d3)-4-((5-methyl-4,5-dihydro-[1,2,4]triazolo[1,5-a]quinoxalin-6-yl)amino)nicotinamide] | > 1 | > 1 | > 1 | > 1 | 0.3 to 1 | < 0.03 | > 1 | < 0.03
2 | CNC(=O)c1nnc(Nc2ccc(F)cn2)cc1Nc1cccc2c1OCCn1cnnc1-2 [Compound 73, 4-((5,6-dihydrobenzo[f][1,2,4]triazolo[4,3-d][1,4]oxazepin-8-yl)amino)-6-((5-fluoropyridin-2-yl)amino)-N-methylpyridazine-3-carboxamide] | > 1 | > 1 | 0.3 to 1 | > 1 | 0.3 to 1 | 0.3 to 1 | 0.3 to 1 | 0.03 to 0.3
3 | [2H]C([2H])([2H])NC(=O)c1nnc(NC(=O)C2CC2)cc1Nc1cccc2c1N(C)Cc1ncnn1-2 [Compound 7, 6-(cyclopropanecarboxamido)-N-(methyl-d3)-4-((5-methyl-4,5-dihydro-[1,2,4]triazolo[1,5-a]quinoxalin-6-yl)amino)pyridazine-3-carboxamide] | > 1 | > 1 | > 1 | > 1 | 0.03 to 0.3 | 0.03 to 0.3 | > 1 | < 0.03
4 | [2H]C([2H])([2H])NC(=O)c1nnc(NC(=O)C2CC2)cc1Nc1cccc2c1N(C([2H])([2H])[2H])Cc1nn(C)nc1-2 [Compound 48, 6-(cyclopropanecarboxamido)-N-(methyl-d3)-4-((2-methyl-5-(methyl-d3)-4,5-dihydro-2H-[1,2,3]triazolo[4,5-c]quinolin-6-yl)amino)pyridazine-3-carboxamide] | > 1 | > 1 | > 1 | > 1 | 0.03 to 0.3 | < 0.03 | 0.3 to 1 | < 0.03
5 | [2H]C([2H])([2H])NC(=O)c1cnc(Nc2ccc(F)cn2)cc1Nc1cccc2c1N(C)CCn1cnnc1-2 [Compound 79, 6-((5-fluoropyridin-2-yl)amino)-N-(methyl-d3)-4-((7-methyl-6,7-dihydro-5H-benzo[f][1,2,4]triazolo[4,3-d][1,4]diazepin-8-yl)amino)nicotinamide] | > 1 | > 1 | > 1 | > 1 | < 0.03 | 0.03 to 0.3 | < 0.03 | 0.03 to 0.3
6 | CNC(=O)c1nnc(NC(=O)C2CC2)cc1Nc1cccc2c1OCCn1cnnc1-2 [Compound 72, 6-(cyclopropanecarboxamido)-4-((5,6-dihydrobenzo[f][1,2,4]triazolo[4,3-d][1,4]oxazepin-8-yl)amino)-N-methylpyridazine-3-carboxamide] | 0.3 to 1 | > 1 | 0.03 to 0.3 | > 1 | > 1 | > 1 | > 1 | 0.3 to 1
7 | CNC(=O)c1nnc(NC(=O)C2CC2)cc1Nc1cccc2c1N(C)CCn1cnnc1-2 [Compound 77, 6-(cyclopropanecarboxamido)-N-methyl-4-((7-methyl-6,7-dihydro-5H-benzo[f][1,2,4]triazolo[4,3-d][1,4]diazepin-8-yl)amino)pyridazine-3-carboxamide] | 0.3 to 1 | > 1 | 0.03 to 0.3 | > 1 | 0.3 to 1 | 0.03 to 0.3 | > 1 | < 0.03
8 | CNC(=O)c1nnc(Nc2ccc(F)cn2)cc1Nc1cccc2c1N(C)CCn1cnnc1-2 [Compound 76, 6-((5-fluoropyridin-2-yl)amino)-N-methyl-4-((7-methyl-6,7-dihydro-5H-benzo[f][1,2,4]triazolo[4,3-d][1,4]diazepin-8-yl)amino)pyridazine-3-carboxamide] | 0.3 to 1 | > 1 | 0.3 to 1 | > 1 | 0.3 to 1 | 0.03 to 0.3 | > 1 | < 0.03

Now from value to molecule, other results behind:

Row | IC50 (JAK3 kinase domain (JH1)) [µM] | IC50 (TYK2 kinase domain (JH1)) [µM] | IC50 (JAK2 kinase domain (JH1)) [µM] | IC50 (JAK1 kinase domain (JH1)) [µM] | SMILES | IC50 [1] [µM] | IC50 [2] [µM] | IC50 [3] [µM] | IC50 [4] [µM]
9 | > 1 | > 1 | > 1 | > 1 | [2H]C([2H])([2H])NC(=O)c1cnc(NC(=O)C2CC2)cc1Nc1cc(F)cc2c1N(C)Cc1nc(C)nn1-2 [Compound 83, 6-(cyclopropanecarboxamido)-4-((8-fluoro-2,5-dimethyl-4,5-dihydro-[1,2,4]triazolo[1,5-a]quinoxalin-6-yl)amino)-N-(methyl-d3)nicotinamide] | > 1 | 0.03 to 0.3 | > 1 | < 0.03
10 | > 1 | > 1 | > 1 | > 1 | [2H]C([2H])([2H])NC(=O)c1cnc(NC(=O)C2CC2)cc1Nc1nccc2c1N(C)Cc1nc(C)nn1-2 [Compound 84, 6-(cyclopropanecarboxamido)-4-((2,5-dimethyl-4,5-dihydropyrido[3,4-e][1,2,4]triazolo[1,5-a]pyrazin-6-yl)amino)-N-(methyl-d3)nicotinamide] | > 1 | 0.03 to 0.3 | > 1 | < 0.03
11 | > 1 | > 1 | 0.03 to 0.3 | > 1 | [2H]C([2H])([2H])NC(=O)c1cnc(Nc2cc(C)nc(C)n2)cc1Nc1cccc2c1N(C)CCn1cnnc1-2 [Compound 80, 6-((2,6-dimethylpyrimidin-4-yl)amino)-N-(methyl-d3)-4-((7-methyl-6,7-dihydro-5H-benzo[f][1,2,4]triazolo[4,3-d][1,4]diazepin-8-yl)amino)nicotinamide] | > 1 | 0.03 to 0.3 | > 1 | 0.03 to 0.3
12 | > 1 | > 1 | > 1 | > 1 | [2H]C([2H])([2H])NC(=O)c1nnc(NC(=O)C2CC2)cc1Nc1nccc2c1N(C)Cc1nc(C)nn1-2 [Compound 85, 6-(cyclopropanecarboxamido)-4-((2,5-dimethyl-4,5-dihydropyrido[3,4-e][1,2,4]triazolo[1,5-a]pyrazin-6-yl)amino)-N-(methyl-d3)pyridazine-3-carboxamide] | 0.03 to 0.3 | 0.03 to 0.3 | > 1 | < 0.03

— patent US12084458B2, “Substituted pyridines, pyridazines, and pyrimidines as TYK2 inhibitors” (Sudo Biosciences Limited, priority 2021, dated 2024)
